For 24 compounds, TGI and GI50 results are on record in PubChem BioAssay (NCI).

Common to all, as to test: NCI-60 cell line screen, 48 h
In test [1] the test system is 786-0 renal.
Test [2] concerns NCI-H460 lung.
For test [3], the system named is NCI-H522 lung.
Test [4] deals with SF-268 CNS.
For test [5], the system named is SK-MEL-2 melanoma.
Test [6] relates to SK-OV-3 ovarian.
The test system of test [7] is SNB-19 CNS.
The test system of test [8] is CCRF-CEM leukemia.
For test [9], the system named is OVCAR-4 ovarian.
The test system of test [10] is MDA-MB-435.

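48-hour exposure; five concentrations; linearly interpolated endpoints. At the GI50, growth is halved. TGI: total growth inhibition.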

For the compound `Nc1ncnc2c1ncn2CCCC(c1ccccc1)P(=O)(O)O` (configuration not stated), the TGI in test [1], in test [2], in test [3], in test [4], in [5] and in test [6] was more than 100 µM in each case. For the same compound, the TGI in test [7] is more than 100 µM.
Regarding `N=c1n(CC(=O)NC23CC4CC(CC(C4)C2)C3)c2ccccc2n1CC(=O)NC12CC3CC(CC(C3)C1)C2`, the TGI in test [1] was found to be 3.19 µM; in test [8] it was 6.23 µM; in test [2] it was 3.17 µM; in test [3], 3.3 µM; in test [9], 3.38 µM; in [4], 3.72 µM. For the same compound, the figures for the TGI in [5], in [6] and in test [7] were 30.9 µM, 29.1 µM and 3.02 µM, respectively.
Take `Cc1c(-c2coc(-c3ccccc3)n2)c(=O)n(-c2ccccc2)n1C`: the TGI in test [1], in test [8], in test [2], in [3], in test [9] and in test [4] was more than 100 µM in each case. For the same compound, the TGI in test [5], in [6] and in test [7] was more than 100 µM throughout.
Take `CO[C@H]1CC[C@]2(C)C3=CC[C@@]4(C)C(CC[C@@H]4C(C)CC[C@@H](C)C(C)C)C(=CCC2C1)O3` (some centres not stated): the TGI in test [1], in [8], in test [2], in [3], in test [9] and in test [4] was more than 25 µM in each case. For the same compound, the TGI in test [5], in test [6] and in test [7] was more than 25 µM in each case.
In the case of `Fc1ccc2[nH]cc(-c3nc(-c4c[nH]c5ccncc45)cs3)c2c1`, the GI50 in test [8] is 1.89 µM; in [5], 1.91 µM; in test [6] it was 1.65 µM. In addition, the TGI in test [8] turned out to be 4.65 µM; in test [5], 3.75 µM; in [6], 3.22 µM.
As to `Brc1c2nc3ccccc3nc2n2ccc3ccccc3c12`, the TGI in test [1], in test [8], in test [2], in test [3], in test [9] and in test [4] was more than 100 µM throughout. Besides, the TGI in test [5], in test [6] and in [7] was more than 100 µM each time.
As for `Cc1cc(Br)cc(C)c1NC(=O)C(=O)C(C(=O)c1ccncc1)C1OC(=O)c2ccccc21` (configuration not stated), the TGI in test [1], in test [8], in test [2], in test [3], in test [9] and in [4] was more than 100 µM in each case. In addition, the TGI in [6] and in test [7] was more than 100 µM in each case.
As to `N#CNC(=NCc1ccccc1)NCCc1c[nH]c2ccccc12`, the TGI is 83.5 µM in test [1]; more than 100 µM in test [8]; more than 100 µM in [2]; more than 100 µM in test [9]; more than 100 µM in test [4]; more than 100 µM in [6]. The same compound came in with a TGI in test [7] of more than 100 µM.
As to `CC(C)(C)c1ccc(O)c(C(c2ccc([N+](=O)[O-])cc2)c2cc(C(C)(C)C)ccc2O)c1`, the TGI in test [1] came to 3.8 µM; in test [8], 7.53 µM; in [3], 4.32 µM; in test [9] it was 3.91 µM; in test [4], 3.16 µM; in test [5], 3.36 µM. The results for the TGI in test [6] and in test [7] were 4.15 µM and 5.36 µM, respectively.
Consider `COc1cc(N)c2[nH]c3c(C)ccc(C)c3c2c1`, for which the TGI in test [1], in test [8], in [2], in test [3], in test [9] and in [4] was more than 100 µM in each case. In addition, the TGI in test [5] and in [7] was more than 100 µM in each case.
For the compound `N/C(=N\S(=O)(=O)c1ccc(-c2ccccn2)s1)Nc1ccc(Cl)cc1`, the TGI in test [1] came to 29.4 µM; in test [2] it was 34.8 µM; in test [3], 24.4 µM; in test [9] it was 37.7 µM; in [4] it was 36.6 µM; in test [5], 27.4 µM. For the same compound, the values for the TGI in test [6] and in [7] were 47.9 µM and 31.5 µM, respectively.
For the compound `COc1cc2c(c(O)c1C)C(=O)CC(c1ccccc1)O2` (configuration not stated), the TGI in test [1] is more than 100 µM; in test [8], more than 10 µM; in test [2], more than 10 µM; in [3], more than 100 µM; in [9], more than 10 µM; in [4], more than 100 µM. Moreover, the results for the TGI in test [5] and in [6] were 95.4 µM and more than 100 µM, respectively.
Take `COC1=CC(=O)C2C(C1=O)[C@@H]1c3ccccc3OC(C)(C)[C@H]21` (some centres not stated): the TGI in [1] was 33.6 µM; in test [8], 65.1 µM; in test [2] it was more than 100 µM; in test [3], 27.7 µM; in test [9], 32.4 µM; in test [4], 88.6 µM. Besides, the TGI in test [5] was 71.2 µM; in [6], more than 100 µM; in test [7], 97.7 µM.
For the compound `Cn1cc(-c2nc(-c3c[nH]c4ccncc34)cs2)c2ccccc21`, the GI50 in [10] was 1.79 µM; in [4], 1.79 µM; in test [5], 1.8 µM; in test [6] it was 1.59 µM. For the same compound, the TGI in test [10] turned out to be 3.32 µM; in test [4], 3.43 µM; in test [5] it was 3.51 µM; in test [6] it was 3.23 µM.
For `CC1(C)OC2CC3COC(=O)C3CC2O1` (configuration not stated), the TGI in [1], in test [8], in [2], in [3], in test [9] and in [4] was more than 100 µM throughout. Moreover, the TGI in test [5] and in test [6] was more than 100 µM in each case.
As to `CCCCCCCCCCCCCCCCNCC(O)CN` (configuration not stated), the TGI in test [8] is 3.72 µM; in [2] it was 3.56 µM; in test [3] it was 33.2 µM; in test [9] it was 12.1 µM; in [4], 12.9 µM; in [5] it was 36.2 µM. The TGI was determined as 35.9 µM in [6] and 36 µM in test [7].
As for `Nc1ncnc2c1sc(=S)n2-c1ccccc1`, the TGI in [1], in [8], in test [2], in test [3], in [9] and in test [4] was more than 100 µM throughout. Moreover, the TGI in test [5], in test [6] and in [7] was more than 100 µM in each case.
As to `C[N+](C)=c1ccc2nc3c(ccc4ccccc43)oc-2c1`, the TGI in test [1] came to 28.9 µM; in [8] it was 8.53 µM; in test [2], 37.7 µM; in [3] it was 8.07 µM; in [9] it was 26.3 µM; in test [4], 29.7 µM. Also, the TGI came to 36.6 µM in test [5], 33.5 µM in test [6] and 31.6 µM in test [7].
As to `NC(=O)COc1c(Br)cc(Br)cc1Br`, the TGI in test [1], in test [8], in test [2], in test [3], in [9] and in test [4] was more than 100 µM throughout. Also, the TGI in [5], in [6] and in test [7] was more than 100 µM each time.
For `COc1ccc(C2S/C(=C\c3cccc(OC)c3)C(=O)N2NC(=O)Cc2ccccc2)cc1` (configuration not stated), the TGI in test [1], in test [8], in [2], in [3], in test [9] and in test [4] was more than 100 µM each time. The TGI in test [5] and in [6] was more than 100 µM each time.
With `C/C=C/c1cc2c(c(=O)o1)C(=O)[C@@H](O)[C@H](C)O2`, the TGI in test [8] was 53.9 µM; in test [2] it was 46.9 µM; in test [3], 20.4 µM; in test [9], 29.7 µM; in [4], 30 µM; in [5] it was 34.2 µM. The TGI was more than 84.4 µM in test [6] and 46.1 µM in test [7].
`O=C(NC12CC3CC(CC(C3)C1)C2)C(=O)c1c[nH]c2ccc(Br)cc12`: the TGI in [1] is 20.5 µM; in [8], more than 100 µM; in test [2], 27 µM; in [3], more than 100 µM; in [9] it was 35.5 µM; in [4] it was 34.2 µM. For the same compound, the figures for the TGI in test [5], in test [6] and in test [7] were more than 100 µM, 60.8 µM and 95.6 µM, respectively.
As for `O=S(=O)(c1ccccc1)c1nccs1`, the TGI in [1], in test [2], in [3], in test [9], in test [4] and in test [5] was more than 100 µM throughout. Also, the TGI in test [6] and in test [7] was more than 100 µM throughout.
For the compound `CCOP(=O)(OCC)/C(C#N)=C\c1ccsc1`, the TGI in [1], in test [2], in test [3], in [9], in [4] and in [5] was more than 100 µM each time. Moreover, the TGI in test [6] and in test [7] was more than 100 µM each time.
